Literature values, collected in patent US7598403B2, “Synthesis of chromanones” (priority 2003, dated 2009).

Tested on: day-old broiler chicks
Settings: administered to day-old broiler chicks (Lee et al., 1985)

## CC1(C)CC(=O)c2c(ccc(C(=O)CC(N)CO)c2N)O1 (racemic) [FC101, 5-amino-2,2-dimethyl-6-[3′-(R,S)amino-4′-hydroxy-butan-1-one]-2,3-dihydro-4H-1-benzopyran-4-one]
  induction of Avian Tibial Dyschondroplasia (ATD): cause ATD
